PubChem BioAssay (NCI)
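Tested at 5 concentrations; 48 h exposure; 96-well plates; endpoints linearly interpolated, else capped at highest concentration. TGI: concentration producing complete growth inhibition.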

Tests used:
Assay in all cases: NCI tumour cell line growth inhibition, 48 h
786-0 renal = system: 786-0 renal
A498 renal = system: A498 renal
A549 NSCLC = system: A549 NSCLC
ACHN renal = system: ACHN renal
CAKI-1 renal = system: CAKI-1 renal
CCRF-CEM leukemia = system: CCRF-CEM leukemia
COLO 205 colon = system: COLO 205 colon
DU-145 prostate = system: DU-145 prostate
EKVX NSCLC = system: EKVX NSCLC
HCC-2998 colon = system: HCC-2998 colon
HCT-15 colon = system: HCT-15 colon
HL-60(TB) leukemia = system: HL-60(TB) leukemia
HOP-62 NSCLC = system: HOP-62 NSCLC
HOP-92 NSCLC = system: HOP-92 NSCLC
HS 578T breast = system: HS 578T breast
HT29 colon = system: HT29 colon
IGROV1 ovarian = system: IGROV1 ovarian
K-562 leukemia = system: K-562 leukemia
KM12 colon = system: KM12 colon
LOX IMVI melanoma = system: LOX IMVI melanoma
M14 melanoma = system: M14 melanoma
MALME-3M melanoma = system: MALME-3M melanoma
MCF7 breast = system: MCF7 breast
MDA-MB-231 breast = system: MDA-MB-231 breast
MDA-MB-435 = system: MDA-MB-435
MDA-N = system: MDA-N
MOLT-4 leukemia = system: MOLT-4 leukemia
NCI-H226 lung = system: NCI-H226 lung
NCI-H23 lung = system: NCI-H23 lung
NCI-H460 lung = system: NCI-H460 lung
NCI-H522 lung = system: NCI-H522 lung
NCI/ADR-RES ovarian = system: NCI/ADR-RES ovarian
OVCAR-3 ovarian = system: OVCAR-3 ovarian
OVCAR-4 ovarian = system: OVCAR-4 ovarian
OVCAR-5 ovarian = system: OVCAR-5 ovarian
OVCAR-8 ovarian = system: OVCAR-8 ovarian
PC-3 prostate = system: PC-3 prostate
RPMI-8226 leukemia = system: RPMI-8226 leukemia
RXF 393 renal = system: RXF 393 renal
SF-268 CNS = system: SF-268 CNS
SF-295 CNS = system: SF-295 CNS
SF-539 CNS = system: SF-539 CNS
SK-MEL-2 melanoma = system: SK-MEL-2 melanoma
SK-MEL-28 melanoma = system: SK-MEL-28 melanoma
SK-MEL-5 melanoma = system: SK-MEL-5 melanoma
SK-OV-3 ovarian = system: SK-OV-3 ovarian
SNB-19 CNS = system: SNB-19 CNS
SNB-75 CNS = system: SNB-75 CNS
SR leukemia = system: SR leukemia
SW-620 colon = system: SW-620 colon
T-47D breast = system: T-47D breast
TK-10 renal = system: TK-10 renal
U251 CNS = system: U251 CNS
UACC-257 melanoma = system: UACC-257 melanoma
UACC-62 melanoma = system: UACC-62 melanoma
UO-31 renal = system: UO-31 renal
HCT-116 colon = system: HCT-116 colon
SN12C renal = system: SN12C renal

C[C@@H](c1ccccc1)C(CC#N)[C@H]1CCC[C@]1(O)C#Cc1ccc2c(c1)OCO2 (stereo partly drawn)
TGI (786-0 renal): 31.3 µM
TGI (A498 renal): 34.9 µM
TGI (A549 NSCLC): 29.8 µM
TGI (ACHN renal): 30.8 µM
TGI (CAKI-1 renal): 30.8 µM
TGI (CCRF-CEM leukemia): 35.5 µM
TGI (COLO 205 colon): 33.1 µM
TGI (DU-145 prostate): 31.6 µM
TGI (EKVX NSCLC): 35.4 µM
TGI (HCC-2998 colon): 30.3 µM
TGI (HCT-15 colon): 32.3 µM
TGI (HL-60(TB) leukemia): 43.8 µM
TGI (HOP-62 NSCLC): 31.3 µM
TGI (HOP-92 NSCLC): 28.4 µM
TGI (HS 578T breast): 43.7 µM
TGI (HT29 colon): 28.9 µM
TGI (IGROV1 ovarian): 33.9 µM
TGI (K-562 leukemia): 47.8 µM
TGI (KM12 colon): 31.6 µM
TGI (LOX IMVI melanoma): 39.5 µM
TGI (M14 melanoma): 30.9 µM
TGI (MALME-3M melanoma): 33.8 µM
TGI (MCF7 breast): 41.3 µM
TGI (MDA-MB-231 breast): 33.7 µM
TGI (MDA-MB-435): 31.3 µM
TGI (MDA-N): 30.4 µM
TGI (MOLT-4 leukemia): 25.2 µM
TGI (NCI-H226 lung): 33.1 µM
TGI (NCI-H23 lung): 35.5 µM
TGI (NCI-H460 lung): 31.3 µM
TGI (NCI-H522 lung): 32.4 µM
TGI (NCI/ADR-RES ovarian): 33.8 µM
TGI (OVCAR-3 ovarian): 29.2 µM
TGI (OVCAR-4 ovarian): 32.6 µM
TGI (OVCAR-5 ovarian): 30.8 µM
TGI (OVCAR-8 ovarian): 32.7 µM
TGI (PC-3 prostate): 31.1 µM
TGI (RPMI-8226 leukemia): 62.5 µM
TGI (RXF 393 renal): 28.6 µM
TGI (SF-268 CNS): 38.8 µM
TGI (SF-295 CNS): 32.4 µM
TGI (SF-539 CNS): 24.1 µM
TGI (SK-MEL-2 melanoma): 32.7 µM
TGI (SK-MEL-28 melanoma): 30.1 µM
TGI (SK-MEL-5 melanoma): 32.8 µM
TGI (SK-OV-3 ovarian): 34.6 µM
TGI (SNB-19 CNS): 29.8 µM
TGI (SNB-75 CNS): 32 µM
TGI (SR leukemia): 46.6 µM
TGI (SW-620 colon): 33.2 µM
TGI (T-47D breast): 32 µM
TGI (TK-10 renal): 29.6 µM
TGI (U251 CNS): 32.1 µM
TGI (UACC-257 melanoma): 34.6 µM
TGI (UACC-62 melanoma): 32.7 µM
TGI (UO-31 renal): 27.7 µM

Cc1ccc(C(=O)CC(O)(C(F)(F)F)C(F)(F)F)cc1[N+](=O)[O-]
TGI (786-0 renal): 25.9 µM
TGI (A498 renal): 35.8 µM
TGI (A549 NSCLC): 33 µM
TGI (ACHN renal): 28.9 µM
TGI (CAKI-1 renal): 4.58 µM
TGI (COLO 205 colon): 36.5 µM
TGI (DU-145 prostate): 13.7 µM
TGI (EKVX NSCLC): 31.7 µM
TGI (HCC-2998 colon): 12.9 µM
TGI (HCT-116 colon): 12.1 µM
TGI (HCT-15 colon): 13.6 µM
TGI (HL-60(TB) leukemia): 4.41 µM
TGI (HOP-62 NSCLC): 29.2 µM
TGI (HOP-92 NSCLC): 22.3 µM
TGI (HS 578T breast): 42.6 µM
TGI (HT29 colon): 4.12 µM
TGI (IGROV1 ovarian): 11.2 µM
TGI (K-562 leukemia): > 28.2 µM
TGI (KM12 colon): 6.31 µM
TGI (LOX IMVI melanoma): 5.22 µM
TGI (M14 melanoma): 17.9 µM
TGI (MALME-3M melanoma): 31.8 µM
TGI (MCF7 breast): 11 µM
TGI (MDA-MB-231 breast): 21.5 µM
TGI (MDA-MB-435): 22.5 µM
TGI (MDA-N): 28.2 µM
TGI (MOLT-4 leukemia): 68.5 µM
TGI (NCI-H226 lung): 38.7 µM
TGI (NCI-H23 lung): 23.7 µM
TGI (NCI-H460 lung): 25.1 µM
TGI (NCI-H522 lung): 1.19 µM
TGI (NCI/ADR-RES ovarian): 44.2 µM
TGI (OVCAR-3 ovarian): 6.44 µM
TGI (OVCAR-4 ovarian): 30.7 µM
TGI (OVCAR-5 ovarian): 33.4 µM
TGI (OVCAR-8 ovarian): 25.9 µM
TGI (PC-3 prostate): 27.2 µM
TGI (RPMI-8226 leukemia): 69.4 µM
TGI (RXF 393 renal): 27.1 µM
TGI (SF-268 CNS): 31.4 µM
TGI (SF-295 CNS): 19.7 µM
TGI (SF-539 CNS): 31.7 µM
TGI (SK-MEL-2 melanoma): 34 µM
TGI (SK-MEL-28 melanoma): 23.4 µM
TGI (SK-MEL-5 melanoma): 30.8 µM
TGI (SK-OV-3 ovarian): 32.2 µM
TGI (SN12C renal): 25 µM
TGI (SNB-19 CNS): 22.6 µM
TGI (SNB-75 CNS): 33.2 µM
TGI (SR leukemia): 14.3 µM
TGI (SW-620 colon): 42.8 µM
TGI (T-47D breast): 38.9 µM
TGI (TK-10 renal): 33.3 µM
TGI (U251 CNS): 31.2 µM
TGI (UACC-257 melanoma): 9.39 µM
TGI (UACC-62 melanoma): 21.9 µM
TGI (UO-31 renal): 10.6 µM
